Assay: Plasma pharmacokinetics following a single intravenous and subcutaneous injection of a combination of formoterol and budesonide
Conditions: for AUC(0-inf): AUCinf; for bioavailability: F (bioavailability); for concentration at 0.0333 hr: male 1-0771, 0.0333 hr; for concentration at 0.0833 hr: male 1-0771, 0.0833 hr; for concentration at 0.167 hr: male 1-0771, 0.167 hr; for concentration at 0.333 hr: male 1-0771, 0.333 hr; for concentration at 0.5 hr: male 1-0771, 0.500 hr; for concentration at 0.75 hr: male 1-0771, 0.750 hr; for concentration at 1 hr: male 1-0771, 1.00 hr; for concentration at 2 hr: male 1-0771, 2.00 hr; for concentration at 4 hr: male 1-0771, 4.00 hr; for concentration at 8 hr: male 1-0771, 8.00 hr; for concentration at 24 hr: male 1-0771, 24.0 hr
Method: Formoterol fumarate dehydrate and budesonide were formulated in 2% PEG-400 in saline. 1 male and 1 female non-naive Gottingen minipigs (8 to 12 kg upon receipt per protocol) were utilized. The animals were housed individually.
Each minipig received a single IV injection of the combined formoterol and budesonide formulation followed by testing of the SC doses. Each dose was separated by at least a 3-day washout period. The IV dose was administered by slow bolus (1 minute; 0.017 hr) into the marginal ear vein, whereas the first SC dose was administered as a bolus injection along the back (neck-region) where there was a longitudinal fat depot. The second SC dose was distributed in 5 separate proximal SC injections separated by approximately 2 cm. Blood samples (approximately 4 mL) were collected via the branchiocephalic plexus at pre-dose and at 2, 5, 10, 20, 30 and 45 minutes, and at 1, 2, 4, 8 and 24 hr post-dose. Blood samples were placed in tubes containing K2-EDTA as the anticoagulant. Samples were processed to plasma by centrifugation and stored frozen at approximately −70° C. (+/−15° C.) until shipment for analysis.
Plasma samples were analyzed for formoterol and budesonide using a qualified liquid chromatography/mass spectrometry/mass mass spectrometry (LC/MS/MS) method. The lower limit of quantitation (LLOQ) was 1.00 pg/mL for formoterol and 25.0 pg/mL for budesonide.
Non-compartmental pharmacokinetic parameters were calculated using WinNonlin 5.2 software, NCA model 202, IV infusion input for the IV data and NCA model 200, extravascular input for the SC data. Individual plasma concentrations for each animal were used in the calculation of pharmacokinetic parameters. Nominal collection times and doses were used in the calculations. The area under the plasma concentration-time curve (AUC) was calculated using linear trapezoidal approximation (linear/log interpolation). Concentration values below the assay limit of quantitation were set to zero for calculations. The maximum plasma concentration (Cmax) and the time of its occurrence (Tmax) were verified by inspection. The half-life (t1/2) values were calculated using the last 3 plasma concentrations with nonzero values, if data permitted.

[1] = male, Gottingen, minipig, in vivo, formoterol 0.4 μg/kg SC1 single site, combination, male 1-0771
[2] = male, Gottingen, minipig, in vivo, formoterol 0.4 μg/kg SC5 (5 sites), combination, male 1-0771
[3] = male, Gottingen, minipig, in vivo, Plasma concentration of formoterol, SC1 0.4 μg/kg, combination
[4] = male, Gottingen, minipig, in vivo, Plasma concentration of formoterol, SC5 0.4 μg/kg, combination
[5] = male, Gottingen, minipig, in vivo, iv, 0.4 ug/kg
[6] = male, Gottingen, minipig, in vivo, iv, 0.4 ug/kg, formoterol 0.4 μg/kg IV in combination with budesonide, male 1-0771
[7] = male, Gottingen, minipig, in vivo, iv, Plasma concentration of formoterol, IV 0.4 μg/kg, combination

COc1ccc(CC(C)NCC(O)c2ccc(O)c(NC=O)c2)cc1 (centres unmarked) [Formoterol, formoterol]
tlast (formoterol 0.4 μg/kg IV in combination with budesonide, male 1-0771): 8.00 h | tlast (formoterol 0.4 μg/kg SC1 single site, combination, female 2-0623): 8.00 h | tlast (formoterol 0.4 μg/kg SC1 single site, combination, male 1-0771): 24.0 h | tlast (formoterol 0.4 μg/kg SC5 (5 sites), combination, female 2-0623): 24.0 h | tlast (formoterol 0.4 μg/kg SC5 (5 sites), combination, male 1-0771): 24.0 h | partition ratio (plasma Cmax subcutaneous / intravenous) (formoterol with budesonide in about 2% PEG-400 in saline): 0.5 | AUC(0-inf) [1]: 0.627 ng·h/mL | AUC(0-inf) [2]: 0.579 ng·h/mL | Cmax [1]: 0.378 ng/mL | Cmax [2]: 0.217 ng/mL | bioavailability [1]: 238% | bioavailability [2]: 219% | concentration at 0 hr (male, Gottingen, minipig, in vivo, Plasma concentration of formoterol, SC1 0.4 μg/kg, combination, male 1-0771, 0 hr): 0.00463 ng/mL | concentration at 0.0333 hr [3]: 0.378 ng/mL | concentration at 0.0833 hr [3]: 0.294 ng/mL | concentration at 0.167 hr [3]: 0.147 ng/mL | concentration at 0.333 hr [3]: 0.121 ng/mL | concentration at 0.5 hr [3]: 0.161 ng/mL | concentration at 0.75 hr [3]: 0.079 ng/mL | concentration at 1 hr [3]: 0.0833 ng/mL | concentration at 2 hr [3]: 0.0822 ng/mL | concentration at 4 hr [3]: 0.0422 ng/mL | concentration at 8 hr [3]: 0.0152 ng/mL | concentration at 24 hr [3]: 0.00287 ng/mL | concentration at 0.0333 hr [4]: 0.133 ng/mL | concentration at 0.0833 hr [4]: 0.216 ng/mL | concentration at 0.167 hr [4]: 0.217 ng/mL | concentration at 0.333 hr [4]: 0.15 ng/mL | concentration at 0.5 hr [4]: 0.0938 ng/mL | concentration at 0.75 hr [4]: 0.0941 ng/mL | concentration at 1 hr [4]: 0.0801 ng/mL | concentration at 2 hr [4]: 0.0711 ng/mL | concentration at 4 hr [4]: 0.0359 ng/mL | concentration at 8 hr [4]: 0.0181 ng/mL | concentration at 24 hr [4]: 0.0013 ng/mL | Tmax [1]: 0.0333 h | Tmax [2]: 0.167 h | Vd [5]: 3.94 L/kg | clearance [5]: 25.3 mL/min/kg | AUC(0-inf) [6]: 0.264 ng·h/mL | Cmax [6]: 0.41 ng/mL | Tmax [6]: 0.0333 h | half-life (male, Gottingen, minipig, in vivo, iv, 0.4 ug/kg, t1/2, formoterol 0.4 μg/kg IV in combination with budesonide, male 1-0771): 2.54 h | concentration at 0.0333 hr [7]: 0.41 ng/mL | concentration at 0.0833 hr [7]: 0.0996 ng/mL | concentration at 0.167 hr [7]: 0.0902 ng/mL | concentration at 0.333 hr [7]: 0.0689 ng/mL | concentration at 0.5 hr [7]: 0.057 ng/mL | concentration at 0.75 hr [7]: 0.0488 ng/mL | concentration at 1 hr [7]: 0.0813 ng/mL | concentration at 2 hr [7]: 0.0265 ng/mL | concentration at 4 hr [7]: 0.0183 ng/mL | concentration at 8 hr [7]: 0.00533 ng/mL | half-life (male, Gottingen, minipig, in vivo, t1/2, formoterol 0.4 μg/kg SC1 single site, combination, male 1-0771): 5.51 h | half-life (male, Gottingen, minipig, in vivo, t1/2, formoterol 0.4 μg/kg SC5 (5 sites), combination, male 1-0771): 4.19 h | absorption after SC administration (single site and divided over 5 sites, combination): well absorbed

— US9132084B2, “Methods for administration and formulations for the treatment of regional adipose tissue” (NEOTHETICS, INC., priority 2009, dated 2015)
